{"source": "paper PMC11173382", "about": "“In Vitro Investigations into the Potential Drug Interactions of Pseudoginsenoside DQ Mediated by Cytochrome P450 and Human Drug Transporters” (Molecules, 2024)", "key": {"CYP2D6": {"target": "T1, CYP2D6 (Homo sapiens, UniProt P10635)", "T1 construct": "tissue Corning 452117; host or cells: human liver microsomes", "T1 sequence (P10635 whole entry)": "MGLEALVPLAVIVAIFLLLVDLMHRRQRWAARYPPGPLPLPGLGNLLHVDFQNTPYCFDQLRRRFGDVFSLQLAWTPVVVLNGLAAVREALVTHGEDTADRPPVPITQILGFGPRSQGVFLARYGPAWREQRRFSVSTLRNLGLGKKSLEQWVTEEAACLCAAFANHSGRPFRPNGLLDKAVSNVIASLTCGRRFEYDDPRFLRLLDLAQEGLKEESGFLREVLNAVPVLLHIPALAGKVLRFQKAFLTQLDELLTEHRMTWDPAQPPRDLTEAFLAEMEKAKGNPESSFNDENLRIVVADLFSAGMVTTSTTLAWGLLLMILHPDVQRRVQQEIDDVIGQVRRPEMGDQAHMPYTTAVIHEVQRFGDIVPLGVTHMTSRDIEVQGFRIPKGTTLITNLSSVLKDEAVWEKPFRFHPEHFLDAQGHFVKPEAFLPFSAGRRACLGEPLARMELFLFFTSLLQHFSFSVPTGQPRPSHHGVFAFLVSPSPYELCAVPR", "assay": "CYP450 inhibition assay in human liver microsomes, CYP2D6", "assay_type": "in vitro ADME", "conditions": "HLM 0.1 mg/mL; probe dextromethorphan 10 µM; 20 min", "procedure": "(§1) To evaluate the reliability and reproducibility of the CYP450 inhibition assay, we measured the inhibitory effects of selected positive control inhibitors of each CYP450 enzyme in human liver microsomes (HLM, Table 1, Figure 2). The potency of inhibition was estimated by observing the alteration in concentration of metabolites of CYP450 substrates (Table 1).\n(§2) Reagents preparation. […] The stock solution of PDQ (10 mM) was prepared with methanol and further diluted to the range of 3 µM to 3 mM with methanol to ensure that the solvent of different PDQ samples contained the same amount (1%) of methanol.\n(§3) The stock solutions of the positive control inhibitors and the probe substrates of CYP450 enzymes were prepared in methanol.\n(§4) CYP450 inhibition assay. […] The assay was conducted in polypropylene 96-well plates (2.2 mL/well, Apricot Designs Inc., Covina, CA, USA).\n(§5) The total volume of the reaction is 200 μL. […] The substrates and analytes were analyzed by LC-MS/MS (API4000, Applied Biosystems, Singapore; HPLC, Shimadzu, Japan). […]\n(§6) Data analysis. […] The IC50 was determined by fitting the dependence of the relative remaining activity (y = Vi/V0) to the following three-parameter equation (Equation (1)). […]"}, "CYP2B6": {"target": "T2, CYP2B6 (Homo sapiens, UniProt P20813)", "T2 construct": "tissue Corning 452117; host or cells: human liver microsomes", "T2 sequence (P20813 1-491)": "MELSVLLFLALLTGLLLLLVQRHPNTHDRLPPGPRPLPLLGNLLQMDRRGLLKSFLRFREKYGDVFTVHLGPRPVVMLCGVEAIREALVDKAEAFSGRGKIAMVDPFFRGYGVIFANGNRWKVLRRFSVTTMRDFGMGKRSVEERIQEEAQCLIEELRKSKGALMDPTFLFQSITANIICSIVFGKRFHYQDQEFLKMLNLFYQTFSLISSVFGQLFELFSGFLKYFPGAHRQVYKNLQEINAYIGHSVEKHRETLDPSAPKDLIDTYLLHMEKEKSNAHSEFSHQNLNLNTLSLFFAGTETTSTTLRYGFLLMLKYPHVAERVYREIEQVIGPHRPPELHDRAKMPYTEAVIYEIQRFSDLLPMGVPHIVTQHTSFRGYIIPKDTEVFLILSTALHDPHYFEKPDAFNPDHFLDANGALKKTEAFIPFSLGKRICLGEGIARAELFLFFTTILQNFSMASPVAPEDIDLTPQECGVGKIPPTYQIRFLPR", "assay": "CYP450 inhibition assay in human liver microsomes, CYP2B6", "assay_type": "in vitro ADME", "conditions": "HLM 0.1 mg/mL; probe bupropion 80 µM; 10 min", "procedure": "as §1, §2, §3, §4, §5, §6"}}}
{"molecule": "CC(C)(O)[C@@H]1CC[C@@](C)([C@H]2CC[C@]3(C)[C@@H]2[C@H](O)C[C@@H]2[C@@]4(C)CC[C@H](O)C(C)(C)[C@@H]4CC[C@]23C)O1", "note": "[PDQ, (20S,24S)-dammar-20,24-epoxy-3β, 12β, 25-triol]", "values": [{"measurement": "IC50", "setting": "CYP2D6", "value": 52, "unit": "µM"}, {"measurement": "IC50", "setting": "CYP2B6", "value": 45.3, "unit": "µM"}]}
